Where two headings read alike, the source gives them in different places.
How the values were obtained:
[1] = tested on: DC2.4 dendritic cells; settings: cited from earlier work; for Potency to stimulate expression of CD 80 vs lipids with longer or saturated acyl chains: ethyl phosphocholine head group lipids, FIG. 14B; for Expression of CD80/CD86: FIG. 14A, disclosed in U.S. Pat. No. 7,303,881
[2] = tested on: BMDC; assay: CCL2 release from BMDC (ELISA); assay type: cell-based, C57BL/6 mice
[3] = tested on: BMDC; assay: RT-PCR of chemokine mRNA in BMDC; assay type: cell-based, mouse; settings: 50 μM liposomes for 16 h; FIG. 15B
Method: Total RNA was isolated from BMDC by Rneasy Mini Kit from Qiagen according to the manufacturer's instruction. Following digestion with Dnase for 30 min at 37° C., the total RNA concentration was determined by spectrophotometry. Primer pairs for mouse CCL2, CCL3, CCL4 and β-actin (forward primer 5′-[…]-3′ [SEQ. ID. NO. 3] and reverse primer 5′-[…]-3′ [SEQ. ID. NO. 4] for CCL2; forward primer 5′-[…]-3′ [SEQ. ID. NO. 5] and reverse primer 5′-[…]-3′ [SEQ. ID. NO. 6] for CCL3; forward primer 5′-[…]-3′ [SEQ. ID. NO. 7] and reverse primer 5′-[…]-3′ [SEQ. ID. NO. 8] and reverse primer 5′-[…]-3′ [SEQ. ID. NO. 9] for β-actin [Wang H., et al., Potential involvement of monocyte chemoattractant protein (MCP)-1/CCL2 in IL-4-mediated tumor immunity through inducing dendritic cell migration into the draining lymph nodes, Int Immunopharmacol 3:627-42, (2003)] were synthesized by IDT technology. RT-PCR was performed using the one-step RT-PCR kit (commercially available from Invitrogen of Carlsbad, Calif.) where reverse transcription and DNA amplification occur in the same reaction. Briefly, 1 μg of total RNA was used as a template in a reaction that included the appropriate primers in the presence of both reverse transcriptase and Taq polymerase. The mixture was incubated at 45° C. for 30 min and cycled 25 times at 94° C. for 30 s, 55° C. for 30 s, and 72° C. for 2 min. […]

[4] = tested on: murine bone marrow derived dendritic cells (BMDC); settings: Vangesseri et al 2006; cited from earlier work
[5] = tested on: DC2.4 cells; assay: Affymetrix microarray of DC2.4 cells treated with DOTAP liposomes; assay type: cell-based, mouse
[6] = Western blot of ERK and p38 activation in BMDC; assay type: cell-based, mouse
Method: (§1) BMDC cell lysate was collected after different treatments and total cellular protein was resolved on polyacrylamide/SDS gels and then transferred to polyvinylidene difluoride membranes. The membranes were blocked with 5% nonfat milk in Tris-buffered saline for 1 h and then incubated from 1 h to overnight with primary antibody. After washing the membranes with Tris-buffered saline three times, the membranes were incubated horseradish peroxidase conjugated secondary antibody for 1 h. The peroxidase activity associated with the protein bands was detected by enhanced chemiluminescence using ECL plus (Amershan International) followed by autoradiography.

[7] = tested on: ERK; assay: Western blot of ERK and p38 activation in BMDC; assay type: cell-based, mouse; settings: for Effect on DOTAP-induced ERK phosphorylation: FIG. 19C
Method: as §1

[8] = tested on: bone marrow derived dendritic cells (BMDC); assay type: cell-based, mouse
[9] = tested on: TC-1 tumor; assay: TC-1 HPV-positive tumor growth in treated mice; assay type: in vivo, C57BL/6 mice; settings: 100 nmole dose, without E7 peptide
[10] = tested on: draining lymph node cells; assay: Uptake of NBD-DOTAP and dendritic cell activation/migration to the draining lymph node; assay type: in vivo, mice
Method: Naïve mice (n=4-6) were injected with PBS control (FIGS. 7 A, C and E) or DOTAP/E7 containing 100 nmols total lipid with 0.5% 1-Oleoyl-2-[6-[(7-nitro-2-1,3-benzoxadiazol-4-yl)amino]hexanoyl]-3-trimethylammonium propane] (“NBD-DOTAP”) (FIGS. 7 B, D, and F). At 4 h after the injection, draining lymph node cells were prepared and stained with appropriate antibodies to surface markers. The co-expression of NBD and CD11c (FIGS. 7 A and B) or CD86 (FIGS. 7 C and D) were analyzed within total lymph node cells whereas the co-expression of NBD and CD8 (FIGS. 7 E and F) were gated and analyzed within CD3^+ population. The numbers represented the percentages of cells in the quadrants. Draining lymph node cells were harvested and analyzed by flow cytometry at different time points post injection. The numbers of CD11c^+ cells among total lymph node cells increased by more than 2.5-fold compared to untreated mice 4 h after NBD-DOTAP/E7 injection (FIGS. 7 A and B). […] NBD uptake by other cell types such as T lymphocytes was also investigated by costaining with anti-CD3, CD4 and CD8 antibodies.

[11] = BMDC stimulated 20 h at 37° C., supernatant ELISA, FIG. 1

## CCCCCCCCCCCC(=O)OC[C@H](COP(=O)(OCC)OCC[N+](C)(C)C)OC(=O)CCCCCCCCCCC (stereo partly drawn) [DLEPC, 1,2-dilauroyl-sn-glycero-3-ethylphosphocholine]
[1]
  Potency to stimulate expression of CD 80 vs lipids with longer or saturated acyl chains: more potent

## CCCCCCCCCCCCCC(=O)OCC(COP(=O)(OCC)OCC[N+](C)(C)C)OC(=O)CCCCCCCCCCCCC (stereo not drawn) [DMEPC, 1,2-dimyristoyl-sn-glycero-3-ethylphosphocholine]
[1]
  Potency to stimulate expression of CD 80 vs lipids with longer or saturated acyl chains: more potent

## CCCCCCCCCCCCCCOC(=O)CC[C@H](NC(=O)[C@@H](N)CCCCN)C(=O)OCCCCCCCCCCCCCC [DMKD, O,O′-dimyristyl-N-lysyl-glutamate]
[1]
  Expression of CD80/CD86: strongly stimulated

## CCCCCCCCCCCCCCOC(=O)C[C@H](NC(=O)[C@@H](N)CCCCN)C(=O)OCCCCCCCCCCCCCC [DMKE, O,O′-dimyristyl-N-lysyl aspartate]
[1]
  Expression of CD80/CD86: strongly stimulated

## CCCCCCCC/C=C\CCCCCCCC(=O)OCC(CN(C)C)OC(=O)CCCCCCC/C=C\CCCCCCCC (stereo not drawn) [DODAP, dioleoyl dimethylaminopropane]
[2]
  MCP-1/CCL2 release from BMDC by liposomes: did not induce the activity

## CCCCCCCC/C=C\CCCCCCCC(=O)OC[C@@H](COP(=O)(OCC)OCC[N+](C)(C)C)OC(=O)CCCCCCC/C=C\CCCCCCCC (stereo partly drawn) [DOEPC, 1,2-dioleoyl-sn-glycero-3-ethylphosphocholine]
[2]
  MCP-1/CCL2 release from BMDC by liposomes: induced the MCP-1/CCL2 release
[3]
  CCL2 and CCL4 mRNA (RT-PCR): upregulated
[4]
  Expression of co-stimulatory molecules CD80 and CD86: activated for the expression of the co-stimulatory molecules
[1]
  Potency to stimulate expression of CD 80 vs lipids with longer or saturated acyl chains: more potent

## CCCCCCCC/C=C\CCCCCCCC(=O)OC[C@H](CO)OC(=O)CCCCCCC/C=C\CCCCCCCC [DOG]
[2]; FIG. 16
  MCP-1/CCL2 release from BMDC by liposomes: did not

## CCCCCCCC/C=C\CCCCCCCC(=O)OC[C@H](COP(=O)([O-])OCC[N+](C)(C)C)OC(=O)CCCCCCC/C=C\CCCCCCCC [DOPC, dioleoyl phosphatidylcholine]
[2]
  MCP-1/CCL2 release from BMDC by liposomes: did not

## CCCCCCCC/C=C\CCCCCCCC(=O)OC[C@H](COP(=O)(O)OCC(O)CO)OC(=O)CCCCCCC/C=C\CCCCCCCC (stereo partly drawn) [DOPG]
[2]; FIG. 16
  MCP-1/CCL2 release from BMDC by liposomes: did not

## CCCCCCCC/C=C\CCCCCCCC(=O)OC[C@H](COP(=O)(O)OC[C@H](N)C(=O)O)OC(=O)CCCCCCC/C=C\CCCCCCCC [DOPS]
[2]
  MCP-1/CCL2 release from BMDC by liposomes: did not

## CCCCCCCC/C=C\CCCCCCCC(=O)OCC(C[N+](C)(C)C)OC(=O)CCCCCCC/C=C\CCCCCCCC (stereo not drawn) [DOTAP, 1,2-dioleoyl-3-trimethylammonium propane]
[2]
  CCL2 release: induced significant amounts of CCL2
  Concentration at which maximum CCL2 induction was reached: 45 to 75 µM
  MCP-1/CCL2 release from BMDC by liposomes: induced the MCP-1/CCL2 release
[5]; 50 μM DOTAP
  CD11c mRNA: induced
[5]; 50 μM DOTAP treatment for 16 h
  IL-1 receptor antagonist (IL1RA) mRNA: increased
  IL-1 β mRNA: decreased
[5]; 50 μM DOTAP, FIG. 15A
  mRNA of chemokines CCL2, CCL3, CCL4: induced overexpression of several chemokines
[3]
  CCL2 and CCL4 mRNA (RT-PCR): upregulated
[6]
  Phosphorylation of IκB and subsequent degradation: no phosphorylation of IκB
  p38 activation: slightly activated
[7]
  Time phospho-ERK stayed at a high level: at least 40 min
  Time to ERK phosphorylation: ≤ 10 min
[8]
  IL-10 induction: no induction of IL-10
[8]; [11]
  IL-12 production: production increased in response to DOTAP concentration
  TNF-α production: did not induce significant levels
[4]
  Expression of co-stimulatory molecules CD80 and CD86: activated for the expression of the co-stimulatory molecules
[9]
  TC-1 tumor growth: did not show significant inhibition of tumor growth

## CCCCCCCC/C=C\CCCCCCCC(=O)OCC(C[N+](C)(C)C)OC(=O)CCCCCNc1ccc([N+](=O)[O-])c2nonc12 (stereo not drawn) [NBD-DOTAP]
[10]; FIG. 7E, F
  NBD uptake by CD3+ cells: no NBD uptake
[10]; soon after immunization
  Share taken up by dendritic cells: ~80%

## CC(C)(C)n1nc(-c2ccc(Cl)cc2)c2c(N)ncnc21 [PP2, reference compound]
[2]; pre-incubated 20 min, then 75 μM DOTAP 24 h, PD 20 μM, SB 10 μM, U 10 μM, PTx 200 ng/mL, PP2 10 μM, Wort 200 nM, GF 200 nM, FIG. 18
  Effect on DOTAP-induced CCL2 production: no inhibitory effect
[7]
  Effect on DOTAP-induced ERK phosphorylation: no effect

## GF109203X [reference compound]
[7]
  Effect on DOTAP-induced ERK phosphorylation: no effect

## pertussis toxin [reference compound]
[7]
  Effect on DOTAP-induced ERK phosphorylation: slight inhibitory effect
